# l = locked nucleic acid (LNA); d = 2'-deoxy (DNA)
# Columns and labels:
# hCD39 mRNA [1] = test: hCD39 mRNA knockdown efficacy screen in A-172 cells (single dose, gymnotic delivery, QuantiGene Singleplex); type: cell-based, human; settings: 10 μM, 3 days; for Mean hCD39 mRNA expression (relative to untreated cells set as 1): first screening round; for Mean hCD39 mRNA expression (relative to untreated cells set as 1) / Relative hCD39 mRNA expression (compared to non-treated cells): normalized to HPRT1; for Relative hCD39 mRNA expression (compared to non-treated cells): second screening round; for Residual hCD39 mRNA expression relative to untreated cells (set as 1): third screening round
# Procedure: (§1) FIGS. 2A to 2D depict hCD39 mRNA knockdown efficacy of hCD39 antisense oligonucleotides in human cancer cell lines HDLM-2 (human Hodgkin Lymphoma) in a first and second screening round (FIGS. 2A-1 and 2A-2) and 2B-1 and 2B-2 and A-172 (human glioblastoma) in a first and second screening round (FIGS. 2C-1 and 2C-2) and 2D-1 and 2D-2. HDLM-2 and A-172 cells were treated for 3 days with 10 μM of the respective antisense oligonucleotide. As negative control, cells were treated with neg1, an antisense oligonucleotide having the sequence CGTTTAGGCTATGTACTT (SEQ ID NO:99) (described in WO2014154843 A1). Residual hCD39 mRNA expression relative to untreated cells is depicted. Expression values were normalized to expression of the housekeeping gene HPRT1. Depicted is the mean of triplicate wells+/−SD.
# (§2) FIGS. 6A-6B depicts a third screening round where further antisense oligonucleotides were designed. These antisense oligonucleotides were based on efficient antisense oligonucleotides from the first and second screening round. Therefore, hCD39 antisense oligonucleotides were tested in human cancer cell lines HDLM-2 (human Hodgkin's lymphoma) (FIG. 6A) and A-172 (human glioblastoma) (FIG. 6B). HDLM-2 and A-172 cells were treated for 3 days with 10 μM of the respective antisense oligonucleotide. […] Residual hCD39 mRNA expression relative to untreated cells (set as 1) is depicted.
# (§3) In order to analyze the efficacy of hCD39 antisense oligonucleotides of the present invention with regard to the knockdown of hCD39 mRNA expression in cancer cell lines, HDLM-2 (human Hodgkin Lymphoma, DSMZ) and A-172 (human glioblastoma, ATCC) cells were treated with a single dose (concentration: 10 μM without addition of any transfection reagent; this process is called gymnotic delivery) of the respective antisense oligonucleotide as shown in FIG. 2A to 2D. hCD39 and HPRT1 mRNA expression was analyzed three days later using the QuantiGene Singleplex assay (Affymetrix) and hCD39 expression values were normalized to HPRT1 values. […] Values of the mean normalized mRNA expression of hCD39 compared to non-treated cells are listed for A-172 (Table 4 for first screening round and Table 5 for second screening round) and HDLM-2 cells (Table 6 for first screening round and Table 7 for second screening round) in the following:
# (§4) For a third screening round, new antisense oligonucleotides were designed. These antisense oligonucleotides were based on efficient antisense oligonucleotides from the first screening round with modifications in length, exact position on mRNA and chemical modification pattern. Therefore, hCD39 antisense oligonucleotides were tested in human cancer cell lines (FIG. 6A, Table 10) HDLM-2 (human Hodgkin's lymphoma) and (FIG. 6B, Table 11) A-172 (human glioblastoma). HDLM-2 and A-172 cells were treated for 3 days with 10 μM of the respective antisense oligonucleotide. […] Residual hCD39 mRNA expression relative to untreated cells (set as 1) is depicted.
# hCD39 mRNA [2] = test: hCD39 mRNA knockdown efficacy screen in HDLM-2 cells (single dose, gymnotic delivery, QuantiGene Singleplex); type: cell-based, human; parameters: key to Relative hCD39 mRNA expression (compared to non-treated cells): *: values are below detection limit; settings: 10 μM, 3 days; for Mean hCD39 mRNA expression normalized to HPRT1 relative to untreated control = 1: first screening round; for Relative hCD39 mRNA expression (compared to non-treated cells): second screening round, normalized to HPRT1; for Residual hCD39 mRNA expression relative to untreated cells (set as 1): third screening round
# Procedure: as §1, §2, §3, §4
Substance,Mean hCD39 mRNA expression (relative to untreated cells set as 1) (hCD39 mRNA [1]),Relative hCD39 mRNA expression (compared to non-treated cells) (hCD39 mRNA [1]),Mean hCD39 mRNA expression normalized to HPRT1 relative to untreated control = 1 (hCD39 mRNA [2]),Relative hCD39 mRNA expression (compared to non-treated cells) (hCD39 mRNA [2]),Residual hCD39 mRNA expression relative to untreated cells (set as 1) (hCD39 mRNA [1]),Residual hCD39 mRNA expression relative to untreated cells (set as 1) (hCD39 mRNA [2])
"+G*+A*+G*A*G*A*A*T*G*T*A*G*G*T*+A*C*+C (antisense GAGAGAATGTAGGTACC; sugars from the 5' end l3 d11 l1 d1 l1, all phosphorothioate, methylation of C not given here) [A04048H]",0.09,0.05,0.05,0.36,–,–
"+T*+G*+A*T*A*G*C*C*T*T*G*C*+A*+G*+A (antisense TGATAGCCTTGCAGA; sugars from the 5' end l3 d9 l3, all phosphorothioate, methylation of C not given here) [A04014H]",0.27,0.27,0.17,0.17,–,–
"+A*+G*A*G*T*G*C*C*T*G*A*T*C*C*+T*+T (antisense AGAGTGCCTGATCCTT; sugars from the 5' end l2 d12 l2, all phosphorothioate, methylation of C not given here) [A04025H]",0.13,0.13,0.08,0.08,–,–
"+C*+C*C*T*G*G*A*T*C*T*T*G*C*C*+A*+A*+T (antisense CCCTGGATCTTGCCAAT; sugars from the 5' end l2 d12 l3, all phosphorothioate, methylation of C not given here) [A04049H]",–,0.45,–,*,–,–
"+G*T*+C*A*A*T*C*C*T*G*C*T*C*A*+A*+C (antisense GTCAATCCTGCTCAAC; sugars from the 5' end l1 d1 l1 d11 l2, all phosphorothioate, methylation of C not given here) [A04038H]",0.56,0.29,0.20,*,–,–
"+G*+C*+C*T*T*G*A*A*C*A*C*T*G*C*+G*+A (antisense GCCTTGAACACTGCGA; sugars from the 5' end l3 d11 l2, all phosphorothioate, methylation of C not given here) [A04032H]",0.19,0.10,0.06,0.01,–,–
"+A*+G*+C*C*T*A*T*G*A*T*G*G*C*C*+A*+C (antisense AGCCTATGATGGCCAC; sugars from the 5' end l3 d11 l2, all phosphorothioate, methylation of C not given here) [A04031H]",–,0.55,–,*,–,–
"+T*G*+T*A*G*A*G*G*C*T*C*C*C*+C*+C (antisense TGTAGAGGCTCCCCC; sugars from the 5' end l1 d1 l1 d10 l2, all phosphorothioate, methylation of C not given here) [A04006H]",0.19,0.20,0.20,0.20,–,–
"+G*+A*C*T*A*T*G*C*T*G*A*A*C*+C*+A*+C (antisense GACTATGCTGAACCAC; sugars from the 5' end l2 d11 l3, all phosphorothioate, methylation of C not given here) [A04023H]",0.09,0.10,0.06,0.06,–,–
"+A*+T*+G*T*A*G*C*C*C*A*A*A*G*T*+C*+C (antisense ATGTAGCCCAAAGTCC; sugars from the 5' end l3 d11 l2, all phosphorothioate, methylation of C not given here) [A04028H]",0.29,0.29,0.07,0.07,–,–
"+T*+A*+C*T*C*C*A*G*C*G*T*A*A*+G*+A*+T (antisense TACTCCAGCGTAAGAT; sugars from the 5' end l3 d10 l3, all phosphorothioate, methylation of C not given here) [A04027H]",0.58,0.58,0.24,0.24,–,–
"+G*+C*+C*C*T*G*A*T*G*T*T*T*G*+A*+A*+T (antisense GCCCTGATGTTTGAAT; sugars from the 5' end l3 d10 l3, all phosphorothioate, methylation of C not given here) [A04054H]",–,–,–,–,0.60,0.13
"+A*+C*+G*T*T*C*A*C*T*A*C*C*T*T*+C*+T*+T (antisense ACGTTCACTACCTTCTT; sugars from the 5' end l3 d11 l3, all phosphorothioate, methylation of C not given here) [A04043H]",0.21,0.11,0.04,*,–,–
"+T*+T*+G*C*A*G*A*G*C*A*T*T*+A*+T*+C (antisense TTGCAGAGCATTATC; sugars from the 5' end l3 d9 l3, all phosphorothioate, methylation of C not given here) [A04007H]",0.53,0.53,0.23,0.23,–,–
"+T*+A*+G*T*A*A*G*C*C*C*T*G*+A*+T*+G (antisense TAGTAAGCCCTGATG; sugars from the 5' end l3 d9 l3, all phosphorothioate, methylation of C not given here) [A04055H]",–,–,–,–,0.52,0.03
"+G*+G*+C*G*A*A*A*T*T*G*C*+A*+G*+A (antisense GGCGAAATTGCAGA; sugars from the 5' end l3 d8 l3, all phosphorothioate, methylation of C not given here) [A04001H]",0.58,0.58,0.25,0.25,–,–

# From patent US11959083B2, “Immunosuppression-reverting oligonucleotides inhibiting the expression of CD39” (Secarna Pharmaceuticals GmbH & Co. KG, priority 2016, dated 2024)
